pIC50: −log10 of the molar value. Values after ≈ are worked out from the molar mass of the structure shown.
Assays:
[1] = Metabolic stability of compound in human liver microsomes assessed as compound remaining; type: ADME, Microsome
[2] = Metabolic stability of compound in mouse liver microsomes assessed as compound remaining; type: ADME, Microsome
[3] = Solubility of compound in crystalline form at pH 6.5; type: physicochemical
[4] = Metabolic stability of compound in rat liver microsomes assessed as compound remaining after 10 mins; type: ADME, Microsome; conditions: read-out: Stability
TGF-beta receptor type-2 = TGF-beta receptor type-2 (Homo sapiens, UniProt P37173); assay: Inhibition of wild type His-tagged TGFBR2 kinase domain (unknown origin) incubated for 1 hr by HTRF analysis
Chain of TGF-beta receptor type-2 (P37173 whole entry, the tested form may be a part): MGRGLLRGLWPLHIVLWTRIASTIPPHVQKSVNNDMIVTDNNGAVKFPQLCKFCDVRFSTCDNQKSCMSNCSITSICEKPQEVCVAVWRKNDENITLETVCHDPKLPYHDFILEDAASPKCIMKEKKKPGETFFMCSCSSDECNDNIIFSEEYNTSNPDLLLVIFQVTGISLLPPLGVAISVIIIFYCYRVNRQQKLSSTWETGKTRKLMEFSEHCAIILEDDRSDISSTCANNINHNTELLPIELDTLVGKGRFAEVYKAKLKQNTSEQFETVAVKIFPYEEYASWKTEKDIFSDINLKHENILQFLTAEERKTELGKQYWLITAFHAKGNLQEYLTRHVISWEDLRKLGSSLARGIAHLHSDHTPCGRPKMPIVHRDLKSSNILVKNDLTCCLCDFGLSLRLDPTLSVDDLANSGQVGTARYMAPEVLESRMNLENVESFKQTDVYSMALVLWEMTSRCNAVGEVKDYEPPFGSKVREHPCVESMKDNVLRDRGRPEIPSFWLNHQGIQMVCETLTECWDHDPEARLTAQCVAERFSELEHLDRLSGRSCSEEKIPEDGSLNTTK

[5] = AUC (0 to 24 hrs) in mouse at 10 mg/kg, po; type: ADME, organism-based; design: dose 10 mg/kg, time < 24 hr, route oral; conditions: in vivo
TGF-beta receptor type-1 [6] = target: T1, TGF-beta receptor type-1 (Homo sapiens, UniProt P36897); assay: Inhibition of TGFBR1 in TGFbeta-stimulated human NHLF cells assessed as reduction in SMAD2 nuclear translocation
T1 sequence (P36897 whole entry): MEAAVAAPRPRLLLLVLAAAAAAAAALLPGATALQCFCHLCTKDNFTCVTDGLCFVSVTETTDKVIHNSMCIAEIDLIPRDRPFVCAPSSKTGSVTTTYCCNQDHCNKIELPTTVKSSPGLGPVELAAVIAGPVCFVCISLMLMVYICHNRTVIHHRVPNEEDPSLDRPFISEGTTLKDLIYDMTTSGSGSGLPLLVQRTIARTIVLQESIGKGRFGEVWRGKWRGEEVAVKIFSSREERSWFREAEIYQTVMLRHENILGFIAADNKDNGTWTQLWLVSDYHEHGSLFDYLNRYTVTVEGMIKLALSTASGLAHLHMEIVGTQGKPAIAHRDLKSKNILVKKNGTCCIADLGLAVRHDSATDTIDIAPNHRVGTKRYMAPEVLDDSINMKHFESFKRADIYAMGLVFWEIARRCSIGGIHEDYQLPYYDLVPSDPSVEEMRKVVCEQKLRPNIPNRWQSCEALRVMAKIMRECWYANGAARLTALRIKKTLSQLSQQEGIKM

TGF-beta receptor type-1 [7] = target: TGF-beta receptor type-1 (Homo sapiens, UniProt P36897, T204D); assay: Inhibition of His-tagged TGFBR1 kinase domain T204D mutant (unknown origin) incubated for 1 hr by HTRF analysis
Chain of TGF-beta receptor type-1 (Homo sapiens, UniProt P36897, T204D) (P36897 34-503 T204D limits assumed): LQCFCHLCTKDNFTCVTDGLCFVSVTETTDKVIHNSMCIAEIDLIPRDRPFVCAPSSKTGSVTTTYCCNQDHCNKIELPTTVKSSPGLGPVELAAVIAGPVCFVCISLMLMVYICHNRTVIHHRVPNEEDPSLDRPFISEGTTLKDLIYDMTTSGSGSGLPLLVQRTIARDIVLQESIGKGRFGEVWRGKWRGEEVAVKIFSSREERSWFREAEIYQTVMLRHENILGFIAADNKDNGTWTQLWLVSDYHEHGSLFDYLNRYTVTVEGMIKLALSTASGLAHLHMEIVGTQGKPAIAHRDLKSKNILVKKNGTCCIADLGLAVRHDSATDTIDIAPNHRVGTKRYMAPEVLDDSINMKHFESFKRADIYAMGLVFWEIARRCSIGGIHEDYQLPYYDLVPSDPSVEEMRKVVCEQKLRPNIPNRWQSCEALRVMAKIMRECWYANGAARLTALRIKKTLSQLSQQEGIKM

[8] = Aqueous solubility of the compound at pH 6.5; type: physicochemical; conditions: buffer

SMILES | Stability [1] | Stability [2] | solubility [3] | remaining at 10 min [4] | pIC50 (TGF-beta receptor type-2) | AUC(0-t) at 24 h [5] | pIC50 (TGF-beta receptor type-1 [6]) | pIC50 (TGF-beta receptor type-1 [7]) | solubility [8]
N#Cc1cnc2ccc(-c3c(-c4ccc(F)cc4)ncn3CCO)nn12 | 93% | 86% | 138 µg/mL (≈ 396 µM) | 100% | < 4.82 | – | – | – | –
Cc1cccc(-c2ncn(CC(F)F)c2-c2ccc3ncc(C(N)=O)n3c2)n1 | 97% | 65% | – | 74% | – | 2 µM·h | – | – | –
Cc1cccc(-c2ncn(CC(F)F)c2-c2ccc3nccn3c2)n1 | 78% | 54% | – | 31% | – | – | 7.05 | 8.00 to 9.00 | –
NC(=O)c1cnc2ccc(-c3c(-c4ccc(F)cc4)ncn3CC(F)F)nn12 | 100% | 100% | – | 100% | – | 28 µM·h | – | – | –
N#Cc1cnc2ccc(-c3c(-c4ccc(F)cc4)ncn3CC(F)F)nn12 | 75% | 89% | – | 96% | < 4.82 | – | – | – | Insoluble

Reference: ChEMBL document CHEMBL4334552, “Discovery of BMS-986260, a Potent, Selective, and Orally Bioavailable TGFβR1 Inhibitor as an Immuno-oncology Agent” (ACS Med Chem Lett, 2020)
